The source of these data is patent US20030190396A1, “Methods and compositions for altering the sweetness delivery profile of sucralose” (priority 2002, published 2003).

Where a SMILES comes first, the peptide text is derived from it.

For series [1] the following is noted: in vivo; cited from earlier work.
Series [2] is described as follows: Subcutaneous water retention in bodybuilders on a pre-competition diet (caliper test and visual inspection, Example 6). Format: in vivo, human. The following applies: ten bodybuilders; 12-week pre-competition diet with this sweetener only; caliper test and muscle definition score twice weekly. The protocol:
This study was defined to determine whether the ingestion of sucralose results in reduced subcutaneous water retention compared to the water retention resulting from the ingestion of aspartame. Ten bodybuilders on a pre-competition diet were closely monitored. Prior to the pre-competition diet, the body fat and the weight of the ten bodybuilders were measured. Prior to this study, the participants in their normal diet refrained for one week from any products containing either sucralose or aspartame.
In the first phase of the study, during the 12-week pre-competition diet, the body builders consumed goods and liquids that were sweetened with aspartame only. Two methods for assessing subcutaneous water retention were used. […] As a second test, the subjective visual inspection was used, where the abdomen and overall body definition were visually inspected and photographed. As with the objective test, the subjects' muscle definition-value was determined twice weekly. A scale of 1 to 10 for muscle definition was used as an indicator for subcutaneous water retention, with a score of 10 indicating excellent muscle definition and 1 indicating poor definition. […]

The conditions of series [3]: Roberts, J. Appl. Nutr. 1988; cited from earlier work.
The subject of series [4] is rats. Particulars: cited from earlier work.

With `OC[C@H]1O[C@H](O[C@]2(CCl)O[C@H](CCl)[C@@H](O)[C@@H]2O)[C@H](O)[C@@H](O)[C@H]1Cl` [sucralose, 4,1′,6′-trichloro-4,1′,6′-trideoxygalactosucrose], the “sweetness intensity relative to sucrose” value in series [1] is recorded as “several hundred times that of sucrose”. For the same compound, in series [2], the subcutaneous water retention result is reported as “This effect is reduced”.

Take `COC(=O)[C@H](Cc1ccccc1)NC(=O)[C@@H](N)CC(=O)O` [aspartame, N-L-α-aspartyl-L-phenylalanine methyl ester] (H-Asp-Phe-OMe): in series [3], the “water retention within the body” value is given as “linked with excessive water retention within the body”. Moreover, the subcutaneous water retention entry in series [2] is given as “makes the body retain water”.

Consider `O=C1NS(=O)(=O)c2ccccc21` [Saccharin], for which, in series [4], the “risk of causing cancer” value was “reported to be a risk in causing cancer in rats”.
